Results as given in patent US8884023B2, “Pyrano [3,2-D][1,3]thiazole as glycosidase inhibitors” (priority 2011, dated 2014).
Read-outs that look alike come from different tables or passages of the source.

Columns and labels:
[1] = molecular target: T1, His-Tagged hOGA (human O-GlcNAcase) (Homo sapiens, UniProt O60502); experiment: biochemical
T1 sequence (O60502 1-916): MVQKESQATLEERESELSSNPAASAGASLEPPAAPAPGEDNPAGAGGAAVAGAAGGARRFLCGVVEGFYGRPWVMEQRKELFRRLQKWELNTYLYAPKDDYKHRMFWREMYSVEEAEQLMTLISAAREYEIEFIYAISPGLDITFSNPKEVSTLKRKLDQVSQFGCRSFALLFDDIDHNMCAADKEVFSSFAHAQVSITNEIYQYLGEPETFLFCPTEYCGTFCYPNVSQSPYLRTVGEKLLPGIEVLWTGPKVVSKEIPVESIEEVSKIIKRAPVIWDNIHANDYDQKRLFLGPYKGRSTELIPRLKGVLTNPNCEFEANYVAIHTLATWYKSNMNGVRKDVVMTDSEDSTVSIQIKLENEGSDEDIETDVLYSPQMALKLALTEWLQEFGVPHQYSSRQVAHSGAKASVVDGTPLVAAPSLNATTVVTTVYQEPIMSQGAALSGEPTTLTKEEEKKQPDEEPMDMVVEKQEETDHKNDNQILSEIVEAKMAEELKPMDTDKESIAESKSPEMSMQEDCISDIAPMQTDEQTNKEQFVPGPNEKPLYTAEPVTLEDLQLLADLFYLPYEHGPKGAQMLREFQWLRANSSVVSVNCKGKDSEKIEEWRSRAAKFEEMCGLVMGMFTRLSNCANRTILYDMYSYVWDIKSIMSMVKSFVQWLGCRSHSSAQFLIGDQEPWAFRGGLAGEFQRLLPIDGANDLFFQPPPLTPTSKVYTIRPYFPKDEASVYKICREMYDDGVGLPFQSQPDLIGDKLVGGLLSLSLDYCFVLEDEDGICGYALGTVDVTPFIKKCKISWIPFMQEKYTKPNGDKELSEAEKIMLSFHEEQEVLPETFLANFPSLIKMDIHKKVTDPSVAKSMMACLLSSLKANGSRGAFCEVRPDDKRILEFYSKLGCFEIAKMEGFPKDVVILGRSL
Protocol: Human O-GlcNAcase Enzyme Inhibition Assay
The following reaction components were added to a final volume of 10 μL in McIlvaine's Buffer (pH 6.5):
20 nM His-Tagged hOGA and 10 μM Fluoroscein mono-beta-D-(2-deoxy-2-N-acetyl) glucopyranoside (FL-GlcNAc; Marker Gene Technologies Inc, Part #M1485). […] The amount of fluorescence measured was plotted against the concentration of inhibitor to produce a sigmoidal dose response curve, from which an IC50 was calculated.

[2] = molecular target: T2, O-GlcNAcase (UniProt Q8VIJ5); assay type: cell-based
T2 sequence (Q8VIJ5 1-916): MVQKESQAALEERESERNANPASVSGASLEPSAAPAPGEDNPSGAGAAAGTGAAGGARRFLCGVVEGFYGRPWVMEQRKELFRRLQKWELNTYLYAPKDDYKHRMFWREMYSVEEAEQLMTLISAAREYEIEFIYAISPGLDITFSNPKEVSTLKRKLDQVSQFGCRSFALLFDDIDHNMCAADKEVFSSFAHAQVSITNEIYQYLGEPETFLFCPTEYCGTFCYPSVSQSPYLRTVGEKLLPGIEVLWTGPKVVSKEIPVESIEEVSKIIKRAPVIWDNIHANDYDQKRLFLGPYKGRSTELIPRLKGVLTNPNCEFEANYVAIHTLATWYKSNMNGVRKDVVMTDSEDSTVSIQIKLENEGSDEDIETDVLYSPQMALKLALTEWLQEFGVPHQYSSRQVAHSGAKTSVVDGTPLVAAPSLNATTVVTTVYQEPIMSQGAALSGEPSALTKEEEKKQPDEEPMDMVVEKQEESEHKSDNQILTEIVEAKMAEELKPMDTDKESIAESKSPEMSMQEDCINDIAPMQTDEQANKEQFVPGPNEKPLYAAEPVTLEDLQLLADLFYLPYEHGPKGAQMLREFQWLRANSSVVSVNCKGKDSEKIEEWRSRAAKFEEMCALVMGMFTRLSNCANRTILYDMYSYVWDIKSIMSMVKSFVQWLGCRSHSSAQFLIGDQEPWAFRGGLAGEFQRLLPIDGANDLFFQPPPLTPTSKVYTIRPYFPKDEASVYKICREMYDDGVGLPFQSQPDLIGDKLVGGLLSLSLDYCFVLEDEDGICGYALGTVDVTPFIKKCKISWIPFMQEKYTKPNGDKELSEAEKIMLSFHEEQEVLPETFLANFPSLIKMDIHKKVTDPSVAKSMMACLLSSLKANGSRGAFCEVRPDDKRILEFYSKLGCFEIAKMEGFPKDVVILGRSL
Text: Assay for the Determination of Cellular Activity for Compounds that Inhibit O-GlcNAcase Activity
Inhibition of O-GlcNAcase, which removes O-GlcNAc from cellular proteins, results in an increase in the level of O-GlcNAcylated proteins in cells. An increase in the O-GlcNAcylation of cellular proteins can be measured by an antibody, such as CTD110.6, that binds O-GlcNAcylated proteins. The amount of O-GlcNAcylated protein can be determined by the enzyme linked immunoabsorbant assay (ELISA) technique.
Cell lines, such as rat B35, rat PC-12 and human SH-SY5Y cells, expressing endogenous levels of O-GlcNAcase, could be utilized. Cells were plated in 96-well plates at a density of approximately 10,000 cells/well. Compounds to be tested were dissolved in DMSO as 10 mM stock solution, and then diluted first with DMSO and then culture media using the Bravo workstation. Cells were treated with diluted compounds for approximately 16 hours. […] To prepare a cell lysate, the media from compound treated cells were removed, and the cells were washed once with Dulbecco's phosphate buffered saline (DPBS) and then lysed for 30 minutes in 100 μl/well of ice cold RIPA buffer containing a protease inhibitor cocktail.
The ELISA portion of the assay was performed in EIA/RIA plates that were coated overnight at 4 C with 80 μl/well of cell lysate. The following day the wells were washed 6 times with 200 μl of wash buffer (0.05% Tween20 in DPBS). The wells were blocked with 200 μl blocking buffer (1% BSA, 0.05% Tween20 in DPBS) for 1 h at room temperature. Each well was then washed 6 times with 200 μl of wash buffer. The anti-O-GlcNAc antibody CTD110.6 (Covance, Princeton, N.J.) was added at 100 μl/well at a concentration of 10 μg/ml. The plates were incubated for 1 h at room temperature. The wells were then washed 6 times with 200 μl/well of wash buffer. To detect the amount of CTD110.6 bound to the cell lysate, alkaline phosphatase conjugated goat anti-mouse IgM (diluted 1:500 in blocking buffer) was added at 100 μl/well and incubated for 45 min at room temperature. Each well was then washed 6 times with 200 μl/well of wash buffer. PNPP tablets dissolved in diethanolamine substrate buffer and 100 μl/well were added as detection reagent.
The amount of O-GlcNAcylated protein, as detected by the ELISA assay, was plotted for each concentration of test compound using standard curve fitting algorithms for sigmoidal dose response curves. The values for a four parameter logistic curve fit of the data were determined, with the inflection point of the curve being the potency value for the test compound.

[3] = read-out: OGA enzyme inhibition (IC50)
[4] = cells expressing endogenous O-GlcNAcase (such as rat B35, rat PC-12, human SH-SY5Y), approximately 16 hours treatment; read-out: OGA cellular inhibition (EC50)

| SMILES | IC50 [1, 3] [nM] | EC50 [2, 4] [nM] | IC50 [1] [nM] | further results |
| --- | --- | --- | --- | --- |
| CCNC1=N[C@@H]2[C@@H](O)[C@H](O)[C@@H](C(O)CCc3ccccc3)O[C@@H]2S1 (single isomer, unassigned) [compound no. 53] | 100 to 500 | 100 to 500 | – | – |
| CCNC1=N[C@@H]2[C@@H](O)[C@H](O)[C@@H](COC(c3ccccc3)(c3ccccc3)c3ccccc3)O[C@@H]2S1 [compound 43] | – | > 1000 | 500 to 1000 | – |
| CCNC1=N[C@@H]2[C@@H](O)[C@H](O)[C@@H](Cn3cc(Cn4cccc4)nn3)O[C@@H]2S1 [compound 66] | < 100 | > 1000 | – | – |
| CCNC1=N[C@@H]2[C@@H](O)[C@H](O)[C@@H](Cn3cc(C(O)c4ccccc4)nn3)O[C@@H]2S1 (some centres unmarked) [compound 68] | – | > 1000 | < 100 | – |
| CCNC1=N[C@@H]2[C@@H](O)[C@H](O)[C@@H](Cn3cc(Cn4c5ccccc5c5ccccc54)nn3)O[C@@H]2S1 [compound 69] | 100 to 500 | 100 to 500 | – | – |
| CCNC1=N[C@@H]2[C@@H](O)[C@H](O)[C@@H](Cn3cc(C(O)(c4ccccc4)C(F)(F)F)nn3)O[C@@H]2S1 (some centres unmarked) [compound 70] | – | > 1000 | < 100 | – |
| CCNC1=N[C@@H]2[C@@H](O)[C@H](O)[C@@H](Cn3cc(CN(C)c4ccccc4)nn3)O[C@@H]2S1 [compound 71] | – | > 1000 | 100 to 500 | – |
| CCNC1=N[C@@H]2[C@@H](O)[C@H](O)[C@@H](Cn3cc(COc4cccc(Br)c4)nn3)O[C@@H]2S1 [compound 72] | < 100 | 100 to 500 | – | – |
| CCNC1=N[C@@H]2[C@@H](O)[C@H](O)[C@@H](Cn3cc(COc4cccc(C#N)c4)nn3)O[C@@H]2S1 [compound 73] | – | 500 to 1000 | < 100 | – |
| CCNC1=N[C@@H]2[C@@H](O)[C@H](O)[C@@H](Cn3cc(COc4cccc(O)c4)nn3)O[C@@H]2S1 [compound 74] | < 100 | > 1000 | – | – |
| CCNC1=N[C@@H]2[C@@H](O)[C@H](O)[C@@H](Cn3cc(COc4cccc(CO)c4)nn3)O[C@@H]2S1 [compound 75] | – | > 1000 | < 100 | – |
| CCNC1=N[C@@H]2[C@@H](O)[C@H](O)[C@@H](Cn3cc(COc4cccc(C(C)O)c4)nn3)O[C@@H]2S1 (some centres unmarked) [compound 76] | – | > 1000 | < 100 | – |
| CCNC1=N[C@@H]2[C@@H](O)[C@H](O)[C@@H](Cn3cc(COc4cccc(C)c4)nn3)O[C@@H]2S1 [compound 77] | < 100 | 100 to 500 | – | – |
| CCNC1=N[C@@H]2[C@@H](O)[C@H](O)[C@@H](Cn3cc(COc4cccc(Cl)c4)nn3)O[C@@H]2S1 [compound 78] | – | < 100 | < 100 | – |
| CCNC1=N[C@@H]2[C@@H](O)[C@H](O)[C@@H](Cn3cc(COc4cccc(F)c4)nn3)O[C@@H]2S1 [compound 79] | < 100 | 100 to 500 | – | – |
| CCNC1=N[C@@H]2[C@@H](O)[C@H](O)[C@@H](Cn3cc(COc4cccc(OC)c4)nn3)O[C@@H]2S1 [compound 80] | – | 100 to 500 | < 100 | – |
| CCNC1=N[C@@H]2[C@@H](O)[C@H](O)[C@@H](CN=[N+]=[N-])O[C@@H]2S1 [compound no. 1, (3aR,5R,6S,7R,7aR)-5-(azidomethyl)-2-(ethylamino)-5,6,7,7a-tetrahydro-3aH-pyrano[3,2-d][1,3]thiazole-6,7-diol] | – | – | – | EC50 ([2]; read-out: OGA cellular inhibition (EC50); cells expressing endogenous O-GlcNAcase (such as rat B35, rat PC-12, human SH-SY5Y), approximately 16 hours treatment): 100 to 500 nM |
| CCNC1=N[C@@H]2[C@@H](O)[C@H](O)[C@@H](C(=O)CCc3ccccc3)O[C@@H]2S1 [compound no. 59, 1-[(3aR,5S,6S,7R,7aR)-2-(ethylamino)-6,7-dihydroxy-5,6,7,7a-tetrahydro-3aH-pyrano[3,2-d][1,3]thiazol-5-yl]-3-phenylpropan-1-one] | > 1000 | – | – | – |
| CCNC1=N[C@@H]2[C@@H](O)[C@H](O)[C@@H](C(=O)CCCc3ccccc3)O[C@@H]2S1 [compound no. 60, 1-[(3aR,5S,6S,7R,7aR)-2-(ethylamino)-6,7-dihydroxy-5,6,7,7a-tetrahydro-3aH-pyrano[3,2-d][1,3]thiazol-5-yl]-4-phenylbutan-1-one] | – | – | > 1000 | – |
| CCNC1=N[C@@H]2[C@@H](O)[C@H](O)[C@@H](CN)O[C@@H]2S1 [compound no. 61, (3aR,5R,6S,7R,7aR)-5-(aminomethyl)-2-(ethylamino)-5,6,7,7a-tetrahydro-3aH-pyrano[3,2-d][1,3]thiazole-6,7-diol] | – | – | 100 to 500 | – |
| CCN(C(=O)OCc1ccccc1)C1=N[C@@H]2[C@@H](O)[C@H](O)[C@@H](CO)O[C@@H]2S1 [compound no. 62, benzyl [(3aR,5R,6S,7R,7aR)-6,7-dihydroxy-5-(hydroxymethyl)-5,6,7,7a-tetrahydro-3aH-pyrano[3,2-d][1,3]thiazol-2-yl]ethylcarbamate] | – | – | – | IC50 ([1]; 20 nM His-Tagged hOGA, 10 μM FL-GlcNAc, pH 6.5, 60 min room temperature, read-out: OGA enzyme inhibition (IC50)): 100 to 500 nM |
| CCN(C(=O)Oc1ccccc1)C1=N[C@@H]2[C@@H](O)[C@H](O)[C@@H](CO)O[C@@H]2S1 [compound no. 63, Phenyl-[(3aR,5R,6S,7R,7aR)-6,7-dihydroxy-5-(hydroxymethyl)-5,6,7,7a-tetrahydro-3aH-pyrano[3,2-d][1,3]thiazol-2-yl]ethylcarbamate] | – | – | 100 to 500 | – |
